Measured values: patent publication US12606541B2, “PPARg modulators and methods of use” (Eisai R&D Management Co., Ltd., priority 2020, dated 2026)
Read-outs that look alike come from different tables or passages of the source.

Legend:
His6-TEV-PPARγ-(234-505) = biological target: T1, His6-TEV-PPARγ-(234-505) (Homo sapiens, UniProt P37231); assay: TR-FRET Assay to Measure Co-R Peptide Recruitment to PPARγ; assay type: biochemical; details: Co-R peptide (SMRT-ID2) recruitment; top final concentration 20 μM; read-out: TR-FRET i-Ag; AC50
T1 construct: The His6-TEV-PPARγ-(234-505) protein for assay was expressed and purified; TEV cleavage site (N); made in house
T1 sequence (P37231 234-505): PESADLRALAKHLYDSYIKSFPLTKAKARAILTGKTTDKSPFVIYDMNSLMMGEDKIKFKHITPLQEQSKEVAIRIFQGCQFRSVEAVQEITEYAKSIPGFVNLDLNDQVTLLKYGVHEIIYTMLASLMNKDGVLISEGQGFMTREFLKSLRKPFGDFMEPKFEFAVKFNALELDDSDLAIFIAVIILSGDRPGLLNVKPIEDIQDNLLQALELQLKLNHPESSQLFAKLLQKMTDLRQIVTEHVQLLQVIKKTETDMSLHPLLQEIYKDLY
Outline: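 His-tagged PPARγ (or controls) was preincubated with compound for 20 minutes at room temperature, then 5 nM anti-His terbium antibody and 200 nM FITC-labeled SMRT-ID2 corepressor peptide (final) were added for a further hour. TR-FRET signal was normalized to percent response using 500 nM T0070907 and DMSO controls.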

UM-UC-9 engineered cells = assay: Cell proliferation / short-term viability assay, CellTiter-Glo 144 h; assay type: cell-based, human; details: read-out: CTGlo 144 h UMUC9.5, G150
Outline: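 UM-UC-9 engineered assay-ready cells seeded at 500 cells/well in high-glucose DMEM/10% FBS, treated from dose-response plates, grown at 37° C, 5% CO2. CellTiter-Glo 2.0 luminescence read on day 7, with a day-0 pretreatment plate as T0 reference and DMSO wells as negative control.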

COc1cc(-c2cc(C(=O)N3CC[C@H](C(=O)NC4CCN(C5COC56CNC6)C4)CC34CC4)n[nH]2)c(F)cn1 (single isomer, unassigned) [Example 461-B]
AC50 (His6-TEV-PPARγ-(234-505)): 324 nM | IC50 (UM-UC-9 engineered cells): > 10000 nM

COc1cc(-c2cc(C(=O)N3CC[C@H](C(=O)NC4CCN(C5COC56CNC6)C4)CC34CC4)n[nH]2)c(F)cn1 (single isomer, unassigned) [Example 461-C]
AC50 (His6-TEV-PPARγ-(234-505)): 375 nM | IC50 (UM-UC-9 engineered cells): > 10000 nM

COc1cc(-c2cc(C(=O)N3CC[C@H](C(=O)NC4CCN(C5COC56CNC6)C4)CC34CC4)n[nH]2)c(F)cn1 (single isomer, unassigned) [Example 461-D]
AC50 (His6-TEV-PPARγ-(234-505)): 388 nM | IC50 (UM-UC-9 engineered cells): > 10000 nM

COc1cc(-c2cc(C(=O)N3CC[C@H](C(=O)NCc4ncc(N5CC6CC5CN6)cc4Cl)CC34CC4)n[nH]2)c(F)cn1 (single isomer, unassigned) [Example 462-A]
AC50 (His6-TEV-PPARγ-(234-505)): 22.5 nM | IC50 (UM-UC-9 engineered cells): 551 nM

COc1cc(-c2cc(C(=O)N3CC[C@H](C(=O)NCc4ncc(N5CC6CC5CN6)cc4Cl)CC34CC4)n[nH]2)c(F)cn1 (single isomer, unassigned) [Example 462-B]
AC50 (His6-TEV-PPARγ-(234-505)): 14.4 nM | IC50 (UM-UC-9 engineered cells): 573 nM

COc1cc(-c2cc(C(=O)N3CC[C@H](C(=O)NC4CCN(C5COC56CCC6)C4)CC34CC4)n[nH]2)c(F)cn1 (single isomer, unassigned) [Example 464-D]
AC50 (His6-TEV-PPARγ-(234-505)): 7.6 nM | IC50 (UM-UC-9 engineered cells; Homo sapiens, UM-UC-9, 144 h): 25.2 nM

COc1cc(-c2cc(C(=O)N3CC[C@H](C(=O)NCc4ncc(N5CC6CC5CN6)cn4)CC34CC4)n[nH]2)c(F)cn1 (single isomer, unassigned) [Example 467-A]
AC50 (His6-TEV-PPARγ-(234-505)): 327 nM | IC50 (UM-UC-9 engineered cells): > 10000 nM

COc1cc(-c2cc(C(=O)N3CC[C@H](C(=O)NCc4ncc(N5CC6CC5CN6)cn4)CC34CC4)n[nH]2)c(F)cn1 (single isomer, unassigned) [Example 467-B]
AC50 (His6-TEV-PPARγ-(234-505)): 644 nM | IC50 (UM-UC-9 engineered cells): > 10000 nM

COc1cc(-c2cc(C(=O)N3CC[C@H](C(=O)NC4CCC(O)(C(F)(F)F)C(O)C4)CC34CC4)n[nH]2)c(F)cn1 (single isomer, unassigned) [Example 474-C]
AC50 (His6-TEV-PPARγ-(234-505)): 5.4 nM | IC50 (UM-UC-9 engineered cells; Homo sapiens, UM-UC-9, 144 h): 23.6 nM

COc1cc(-c2cc(C(=O)N3CC[C@H](C(=O)NC4CCC(O)(C(F)(F)F)C(O)C4)CC34CC4)n[nH]2)c(F)cn1 (single isomer, unassigned) [Example 474-D]
AC50 (His6-TEV-PPARγ-(234-505)): 331 nM | IC50 (UM-UC-9 engineered cells): 2020 nM

COc1cc(-c2cc(C(=O)N3CC[C@H](C(=O)NC4CCC(O)(C(F)(F)F)C(O)C4)CC34CC4)n[nH]2)c(F)cn1 (single isomer, unassigned) [Example 474-E]
AC50 (His6-TEV-PPARγ-(234-505)): 1500 nM | IC50 (UM-UC-9 engineered cells): 1930 nM

COc1cc(-c2cc(C(=O)N3CC[C@H](C(=O)NC4CCC(O)(C(F)(F)F)C(O)C4)CC34CC4)n[nH]2)c(F)cn1 (single isomer, unassigned) [Example 474-F]
AC50 (His6-TEV-PPARγ-(234-505)): 71.6 nM | IC50 (UM-UC-9 engineered cells): 2540 nM

COc1cc(-c2cc(C(=O)N3CC[C@H](C(=O)NC(C)c4cc5n(n4)CCN(C)C5)CC34CC4)n[nH]2)c(F)cn1 (single isomer, unassigned) [Example 475-A]
AC50 (His6-TEV-PPARγ-(234-505)): 433 nM | IC50 (UM-UC-9 engineered cells): 2840 nM

COc1cc(-c2cc(C(=O)N3CC[C@H](C(=O)NC(C)c4cc5n(n4)CCN(C)C5)CC34CC4)n[nH]2)c(F)cn1 (single isomer, unassigned) [Example 475-B]
AC50 (His6-TEV-PPARγ-(234-505)): 102 nM | IC50 (UM-UC-9 engineered cells): 583 nM

CCc1cc(-c2cc(C(=O)N3CCC(C(=O)NCc4ncc(F)cc4Cl)CC34CC4)n[nH]2)c(F)cn1 (single isomer, unassigned) [Example 483-A]
AC50 (His6-TEV-PPARγ-(234-505)): 216 nM | IC50 (UM-UC-9 engineered cells): 1520 nM

CCc1cc(-c2cc(C(=O)N3CCC(C(=O)NCc4ncc(F)cc4Cl)CC34CC4)n[nH]2)c(F)cn1 (single isomer, unassigned) [Example 483-B]
AC50 (His6-TEV-PPARγ-(234-505)): 0.9 nM | IC50 (UM-UC-9 engineered cells): 7.2 nM

COc1cc(-c2cc(C(=O)N3CC[C@H](C(=O)Nc4cnn5cc(C(C)O)ccc45)CC34CC4)n[nH]2)c(F)cn1 (single isomer, unassigned) [Example 495-A]
AC50 (His6-TEV-PPARγ-(234-505)): 23.2 nM | IC50 (UM-UC-9 engineered cells): 287 nM

COc1cc(-c2cc(C(=O)N3CC[C@H](C(=O)Nc4cnn5cc(C(C)O)ccc45)CC34CC4)n[nH]2)c(F)cn1 (single isomer, unassigned) [Example 495-B]
AC50 (His6-TEV-PPARγ-(234-505)): 13.3 nM | IC50 (UM-UC-9 engineered cells): 144 nM

COc1cc(-c2cc(C(=O)N3CC[C@H](C(=O)NC4CCC(C(F)(F)F)C(O)C4)CC34CC4)n[nH]2)c(F)cn1 (single isomer, unassigned) [Example 501-A]
AC50 (His6-TEV-PPARγ-(234-505)): 7.8 nM | IC50 (UM-UC-9 engineered cells): 21.4 nM

COc1cc(-c2cc(C(=O)N3CC[C@H](C(=O)NC4CCC(C(F)(F)F)C(O)C4)CC34CC4)n[nH]2)c(F)cn1 (single isomer, unassigned) [Example 501-B]
AC50 (His6-TEV-PPARγ-(234-505)): 51.1 nM | IC50 (UM-UC-9 engineered cells): 258 nM

COc1cc(-c2cc(C(=O)N3CC[C@H](C(=O)NC4CCCn5cc(C(F)(F)F)nc54)CC34CC4)n[nH]2)c(F)cn1 (single isomer, unassigned) [Example 502-A]
AC50 (His6-TEV-PPARγ-(234-505)): 110 nM | IC50 (UM-UC-9 engineered cells): 750 nM

COc1cc(-c2cc(C(=O)N3CC[C@H](C(=O)NC4CCCn5cc(C(F)(F)F)nc54)CC34CC4)n[nH]2)c(F)cn1 (single isomer, unassigned) [Example 502-B]
AC50 (His6-TEV-PPARγ-(234-505)): 5.3 nM | IC50 (UM-UC-9 engineered cells): 66.1 nM

COc1cc(-c2cc(C(=O)N3CC[C@H](C(=O)NCC4CCNCC4(F)F)CC34CC4)n[nH]2)c(F)cn1 (single isomer, unassigned) [Example 511-A]
AC50 (His6-TEV-PPARγ-(234-505)): 17.2 nM | IC50 (UM-UC-9 engineered cells): 63.5 nM

COc1cc(-c2cc(C(=O)N3CC[C@H](C(=O)NCC4CCNCC4(F)F)CC34CC4)n[nH]2)c(F)cn1 (single isomer, unassigned) [Example 511-B]
AC50 (His6-TEV-PPARγ-(234-505)): 18.5 nM | IC50 (UM-UC-9 engineered cells): 78.4 nM

COc1cc(-c2cc(C(=O)N3CC[C@H](C(=O)Nc4cnn5c4CC(O)CC5)CC34CC4)n[nH]2)c(F)cn1 (single isomer, unassigned) [Example 514-A]
AC50 (His6-TEV-PPARγ-(234-505)): 149 nM | IC50 (UM-UC-9 engineered cells): 4200 nM

COc1cc(-c2cc(C(=O)N3CC[C@H](C(=O)Nc4cnn5c4CC(O)CC5)CC34CC4)n[nH]2)c(F)cn1 (single isomer, unassigned) [Example 514-B]
AC50 (His6-TEV-PPARγ-(234-505)): 59.6 nM | IC50 (UM-UC-9 engineered cells): 4310 nM

COc1cc(-c2cc(C(=O)N3CC[C@H](C(=O)NC45CC(CO)(C4)OC5C)CC34CC4)n[nH]2)c(F)cn1 (single isomer, unassigned) [Example 518-A]
AC50 (His6-TEV-PPARγ-(234-505)): 130 nM | IC50 (UM-UC-9 engineered cells): 3130 nM

COc1cc(-c2cc(C(=O)N3CC[C@H](C(=O)NC45CC(CO)(C4)OC5C)CC34CC4)n[nH]2)c(F)cn1 (single isomer, unassigned) [Example 518-B]
AC50 (His6-TEV-PPARγ-(234-505)): 996 nM | IC50 (UM-UC-9 engineered cells): > 10000 nM

N#Cc1cc(-c2cc(C(=O)N3CCC(C(=O)NC4CCC(O)(C(F)(F)F)CC4)CC34CC4)n[nH]2)ncn1 (single isomer, unassigned) [Example 528-A]
AC50 (His6-TEV-PPARγ-(234-505)): 2090 nM | IC50 (UM-UC-9 engineered cells): > 10000 nM

N#Cc1cc(-c2cc(C(=O)N3CCC(C(=O)NC4CCC(O)(C(F)(F)F)CC4)CC34CC4)n[nH]2)ncn1 (single isomer, unassigned) [Example 528-B]
AC50 (His6-TEV-PPARγ-(234-505)): 14 nM | IC50 (UM-UC-9 engineered cells): 405 nM

O=C(NC1CCC(O)(C(F)(F)F)CC1)C1CCN(C(=O)c2cc(-c3cc(Cl)ncc3F)[nH]n2)C2(CC2)C1 (single isomer, unassigned) [Example 529-A]
AC50 (His6-TEV-PPARγ-(234-505)): 756 nM | IC50 (UM-UC-9 engineered cells): 5560 nM

O=C(NC1CCC(O)(C(F)(F)F)CC1)C1CCN(C(=O)c2cc(-c3cc(Cl)ncc3F)[nH]n2)C2(CC2)C1 (single isomer, unassigned) [Example 529-B]
AC50 (His6-TEV-PPARγ-(234-505)): 1.4 nM | IC50 (UM-UC-9 engineered cells): 9.2 nM

COc1cc(-c2cc(C(=O)N3CCC(C(=O)N[C@@H](C)c4cccc(F)c4)CC3)n[nH]2)c(Cl)cn1 [Example 103, (8)-1-(5-(5-chloro-2-methoxypyridin-4-yl)-1H-pyrazole-3-carbonyl)-N-(1-(3-fluorophenyl)ethyl)piperidine-4-carboxamide]
AC50 (His6-TEV-PPARγ-(234-505)): 257 nM | IC50 (UM-UC-9 engineered cells; Homo sapiens, UM-UC-9, 144 h): 320 nM

COc1cc(-c2cc(C(=O)N3CCC(C(=O)NCc4cccc(Cl)c4)CC3)n[nH]2)c(Cl)cn1 [Example 112, 1-[5-(5-chloro-2-methoxypyridin-4-yl)-1H-pyrazole-3-carbonyl]-N-[(3-chlorophenyl)methyl]piperidine-4-carboxamide]
AC50 (His6-TEV-PPARγ-(234-505)): 30.3 nM | IC50 (UM-UC-9 engineered cells; Homo sapiens, UM-UC-9, 144 h): 111 nM
